Source: PMC9578020, “Design, synthesis, molecular modeling, and bioactivity evaluation of 1,10-phenanthroline and prodigiosin (Ps) derivatives and their Copper(I) complexes against mTOR and HDAC enzymes as highly potent and effective new anticancer therapeutic drugs” (Frontiers in Pharmacology, 2022)
Several values for one entry are separate records, joined by “and”; a condition that tells them apart may be missing. Equal entries are not always repeated. Where two headings read alike, the source gives them in different places.

Columns and labels:
[1] = system: CRL-1620 (CRL); assay: CCK8 anticancer activity / cytotoxicity test, CRL; assay type: cell-based
[2] = system: MDA-MB-231BR (231BR); assay: CCK8 anticancer activity / cytotoxicity test, 231BR; assay type: cell-based
Experimental: (§1) The IC50 was calculated by SPSS statistics (IBM). […] All cytotoxicity tests were performed in six biological replicates.
(§2) The anticancer activity against 231BR is of highest interest. […] Figure 3 depicts the anticancer activities of these compounds.

[3] = system: HTB22; assay: CCK8 anticancer activity / cytotoxicity test, HTB22; assay type: cell-based; details: read-out: Approximate IC50, primary screening
Experimental: as §1, §2

[4] = system: HTB131; assay: CCK8 anticancer activity / cytotoxicity test, HTB131; assay type: cell-based
[5] = system: MCF10A; assay: CCK8 cytotoxicity test on normal cell line MCF10A
Experimental: (§3) MDA-MB-231 (231) and HTB131 were grown with RPIM-1640 medium (with 10% Fetal Bovine Serum and 2% Penicillin-Streptomycin Solution). MDA-MB-231BR (231BR), CRL-1620 (CRL), and MCF10A were grown with DMEM (with 10% Fetal Bovine Serum and 2% Penicillin-Streptomycin Solution). HTB22 was grown with EMEM (with 10% Fetal Bovine Serum and 2% Penicillin-Streptomycin Solution). Cell lines were taken out from liquid nitrogen and thawed in a 37°C water bath. After thawing, cell cultures were transferred to 75 cm^2 flasks and incubated at 37°C with 5% CO2 for 4–7 days. After reaching 80% of cell confluence, cells were ready for subculturing or testing.
(§4) Anticancer activity tests were performed using a Cell Counting Kit-8 (CCK8, SigmaAldrich) following manufacturer’s instruction ([Shen et al., 2016]). Briefly, 100 µl of diluted cell suspension (approximately 10000 cells) was transferred to 96-well plate, incubated at 37°C with 5% CO2 for 24 h. Then, the compounds were diluted into a serial of concentrations in DMSO. Next, 0.5 µl of diluted compounds were added to 100 µl of cell medium and gently mixed, resulting in the final concentration of DMSO at 0.5%. 100 µl of the compound contained medium were then used to replace the original medium and incubated at 37°C for 48 h. After incubation with compounds, 10 µl of CCK8 reagent was added to each well and mixed by gently tapping the plate. Then, the plate was incubated at 37°C for 2–4 h until the orange color was dark enough to measure. The plate was measured using a Multiskan microplate reader (Fisher Scientific) at 450 nm. The IC50 was calculated by SPSS statistics (IBM). […] All cytotoxicity tests were performed in six biological replicates. Each compound was performed two cycles of screening: primary screening using 10 times serial dilution to determine the approximate concentration and then secondary screening using a narrow concentration range to acquire the accurate IC50.
(§5) The newly synthesized molecules in which their binding affinities were predicted in silico were tested on five different breast cancer lines, MDA-MB-231 (231), MDA-MB-361 (361), HTB131, HTB22, and MDA-MB-231BR (231BR), and one brain cancer cell line, CRL-1620 (CRL). […] Among these cell lines, 231BR attracted most of our interest because it is a brain metastatic specific breast cancer cell line that has 100% rate of brain metastasis and cannot migrate to any other organs ([Yoneda et al., 2001]). The anticancer capacities of each compound were first screened by 10 times dilution to generate different molar concentrations ranging in 5 orders of magnitudes. This wide concentration range was applied for primary screening (Supplementary Table S3) to narrow down the targets. The approximate IC50 was estimated in the primary screening step and used to design the concentration range of the secondary cytotoxicity tests (Supplementary Table S4). […] Anticancer drug taxol (paclitaxel) was used as the reference to estimate the efficacy of each compound. […] The anticancer activity against 231BR is of highest interest. Meanwhile, the same treatments were performed against the normal breast cell line, MCF10A, to test their cytotoxicity. […] A negative logarithm of IC50 was applied to represent the corresponding anticancer activity.

[6] = system: MDA-MB-231 (231); assay: CCK8 anticancer activity / cytotoxicity test, 231; assay type: cell-based, human
[7] = system: MDA-MB-361 (361); assay: CCK8 anticancer activity / cytotoxicity test, 361; assay type: cell-based
Experimental: as §1, §2

[8] = CCK8 cytotoxicity test on normal cell line MCF10A; details: human
Experimental: as §3, §4, §5

[9] = CRL, 48 h, 10 times serial dilution, read-out: Approximate IC50, primary screening
[10] = 231BR, 48 h, 10 times serial dilution, read-out: Approximate IC50, primary screening
[11] = HTB22, 48 h, 10 times serial dilution
[12] = HTB131, 48 h, 10 times serial dilution, read-out: Approximate IC50, primary screening
[13] = CRL, 48 h, narrow concentration range, read-out: IC50, secondary cytotoxicity test
[14] = HTB131, 48 h, narrow concentration range, read-out: IC50, secondary cytotoxicity test
[15] = 231BR, 48 h, narrow concentration range, read-out: IC50, secondary cytotoxicity test
[16] = Homo sapiens, MDA-MB-361, 361, 48 h, 10 times serial dilution, read-out: Approximate IC50, primary screening
[17] = Homo sapiens, MCF-10A, 48 h, read-out: Approximate IC50, primary screening
[18] = Homo sapiens, MDA-MB-231; 231, 48 h, 10 times serial dilution; read-out: Approximate IC50, primary screening
[19] = Homo sapiens, MDA-MB-231; 231, 48 h, narrow concentration range; read-out: IC50, secondary cytotoxicity test
[20] = 48 h, read-out: Approximate IC50, primary screening
[21] = 48 h, read-out: IC50, secondary cytotoxicity test

CCC1=N/C(=C\c2[nH]c(-c3ccn[nH]3)cc2OC)C=C1 [Compound L9]
IC50 [1, 9]: > 168 µM | IC50 [2, 10]: > 168 µM | IC50 [3, 11]: > 168 µM

CCC1=NC(=Cc2[nH]c(-c3cn[nH]c3)cc2OC)C=C1.CCC1=NC(=Cc2[nH]c(-c3cn[nH]c3)cc2OC)C=C1.F[P-](F)(F)(F)(F)F.[Cu+] [Compound C8]
IC50 [2, 10]: 48.5 µM

CCC1=NC(=Cc2[nH]c(-c3ccn[nH]3)cc2OC)C=C1.CCC1=NC(=Cc2[nH]c(-c3ccn[nH]3)cc2OC)C=C1.F[P-](F)(F)(F)(F)F.[Cu+] [Compound C9]
IC50 [4, 12]: 10.2 µM

CCC1=NC(=Cc2[nH]c(-c3ncc[nH]3)cc2OC)C=C1.CCC1=NC(=Cc2[nH]c(-c3ncc[nH]3)cc2OC)C=C1.F[P-](F)(F)(F)(F)F.[Cu+] [Compound C10]
IC50 [1, 13]: 1.6 µM | IC50 ([5]; read-out: IC50, secondary cytotoxicity test, MCF10A normal cell line, 48 h, Table S4): 1.4 µM | IC50 ([6]; 231, 48 h, narrow concentration range; read-out: IC50, secondary cytotoxicity test): 2.86 µM | IC50 [4, 14]: 2.17 µM | IC50 [2, 15]: 2.2 µM

COc1ccc(-c2ccc3ccc4ccc(-c5ccc(OC)cc5)nc4c3n2)cc1.Cc1cc2ccc1OCCOCCOCCOCCOCCOc1ccc(cc1C)-c1ccc3ccc4ccc-2nc4c3n1.F[P-](F)(F)(F)(F)F.[Cu+] [Compound C1]
IC50 [7]: 6.5 µM | IC50 [1]: 0.315 µM | IC50 [5]: 1 µM | IC50 [6]: 0.403 µM | IC50 [4]: 0.228 µM | IC50 [2]: 0.597 µM | IC50 [2, 10]: < 10 µM

CCC1=N/C(=C\c2[nH]c(-c3cccn3C(=O)OC(C)(C)C)cc2OC)C=C1 [Compound L7]
IC50 ([7]; Homo sapiens, MDA-MB-361, 48 h, read-out: IC50, secondary cytotoxicity test): 0.00212 mg/mL | IC50 [7, 16]: 0.75 to 7.5 µM | IC50 ([7]; Homo sapiens, MDA-MB-361, 361, 48 h, Table S4, read-out: IC50, secondary cytotoxicity test): 5.79 µM | IC50 [1, 9]: 0.75 to 7.5 µM | IC50 [1, 13]: 0.409 µM | IC50 ([1]; CRL, 48 h, read-out: IC50, secondary cytotoxicity test): 0.15 mg/L | IC50 [5, 17]: 0.075 to 0.75 µM | IC50 at 48 h ([8]; MCF10A normal breast cells): 3.93 µM | IC50 ([6]; Homo sapiens, MDA-MB-231, 48 h; read-out: IC50, secondary cytotoxicity test): 0.0278 mg/L | IC50 [6, 18]: 0.075 to 0.75 µM | IC50 [6, 19]: 0.0758 µM | IC50 [4, 12]: 0.075 to 0.75 µM | IC50 [4, 14]: 0.139 µM | IC50 ([4]; HTB131, 48 h, read-out: IC50, secondary cytotoxicity test): 0.0512 mg/L | IC50 [2, 10]: 0.075 µM | IC50 [2, 15]: 0.0463 µM | IC50 ([2]; 231BR, 48 h, read-out: IC50, secondary cytotoxicity test): 0.017 mg/L | IC50 [3, 11]: 0.75 to 7.5 µM

CCC1=NC(=Cc2[nH]c(-c3ccc4[nH]ccc4c3)cc2OC)C=C1.CCC1=NC(=Cc2[nH]c(-c3ccc4[nH]ccc4c3)cc2OC)C=C1.F[P-](F)(F)(F)(F)F.[Cu+] [Compound C14]
IC50 [1, 9]: 38.3 µM | IC50 ([5]; read-out: Approximate IC50, primary screening, MCF10A normal cell line, 48 h, 10 times serial dilution): > 385 µM | anticancer activity increase of copper(I) complex compared with its ligand ([2]; 231BR, C14 compared with L14): 5.9 times

CCC1=NC(=Cc2[nH]c(-c3cccc4cc[nH]c34)cc2OC)C=C1.CCC1=NC(=Cc2[nH]c(-c3cccc4cc[nH]c34)cc2OC)C=C1.F[P-](F)(F)(F)(F)F.[Cu+] [Compound C15]
IC50 [2, 10]: 31.9 µM

CCC1=N/C(=C\c2[nH]c(-c3ccc4[nH]ccc4c3)cc2OC)C=C1 [Compound L14]
IC50 [1, 9]: > 79 µM | IC50 [3, 11]: > 79 µM

CCCCCC1=C/C(=C/c2[nH]c(-c3ccc[nH]3)cc2OC)N=C1C [Ps, Prodigiosin]
IC50 ([7]; Homo sapiens, MDA-MB-361, 48 h, read-out: Approximate IC50, primary screening, 361, 48 h, 10 times serial dilution): > 7.5 µM | IC50 ([7]; Homo sapiens, MDA-MB-361, 48 h, read-out: IC50, secondary cytotoxicity test, 361, 48 h, Table S4): > 75 µM | IC50 ([7]; Homo sapiens, MDA-MB-361, 48 h, read-out: IC50, secondary cytotoxicity test, 361, 48 h, increased drug concentration): 228 µM | IC50 ([7]; Homo sapiens, MDA-MB-361, 48 h, read-out: IC50, secondary cytotoxicity test, 361, 48 h, increased drug concentration (mg/mL)): 0.074 mg/mL | IC50 [1, 20]: 0.75 to 7.5 µM | IC50 [1, 21]: 4.64 µM and 1.5 µg/mL | IC50 [5, 17]: 7.5 µM | IC50 at 48 h [8]: 8.75 µM and 2.84 µg/mL | IC50 ([6]; Homo sapiens, MDA-MB-231, 48 h, read-out: Approximate IC50, primary screening): 0.75 to 7.5 µM | IC50 ([6]; Homo sapiens, MDA-MB-231, 48 h, read-out: IC50, secondary cytotoxicity test): 0.511 µg/mL and 1.58 µM | IC50 [4, 20]: 0.75 to 7.5 µM | IC50 [4, 21]: 2.81 µM and 0.91 µg/mL | IC50 ([2]; 48 h, read-out: IC50, secondary cytotoxicity test, 231BR, 48 h): 0.312 mg/L | IC50 ([2]; 48 h, read-out: IC50, secondary cytotoxicity test, 231BR, 48 h, narrow concentration range): 0.963 µM | IC50 ([3]; 48 h): > 75 µM

CC(=O)O[C@H]1C(=O)[C@@]2(C)[C@H]([C@H](OC(=O)c3ccccc3)[C@]3(O)C[C@H](OC(=O)[C@H](O)[C@@H](NC(=O)c4ccccc4)c4ccccc4)C(C)=C1C3(C)C)[C@]1(OC(C)=O)CO[C@@H]1C[C@@H]2O [Taxol, paclitaxel, reference compound]
IC50 [7, 16]: > 7.5 µM | IC50 [1, 9]: 0.028 µM | IC50 [5, 17]: > 7.5 µM | times lower cytotoxicity on normal cell line ([5]; normal cell line MCF10A relative to 231BR): more than 700 times | IC50 [6, 18]: 0.0213 µM | IC50 [4, 12]: 0.057 µM | IC50 [2, 10]: 0.039 µM

CCC1=N/C(=C\c2[nH]c(-c3ccc4cc[nH]c4c3)cc2OC)C=C1 [Compound L13]
IC50 [1, 13]: 6.53 µM | IC50 at 48 h ([8]; MCF10A normal breast cells): 3.7 µM | IC50 [6, 19]: 3.49 µM | IC50 [4, 14]: 12.6 µM | IC50 [2, 10]: 3.1 µM | IC50 [2, 15]: 5.06 µM

CCC1=NC(=Cc2[nH]c(-c3cccn3C(=O)OC(C)(C)C)cc2OC)C=C1 [L ^7]
IC50 [5]: 3.39 µM | times lower cytotoxicity on normal cell line [5]: more than 80 times | IC50 [6]: 0.0758 µM | IC50 [2]: 0.0463 µM

CCC1=N/C(=C\c2[nH]c(-c3cccc4cc[nH]c34)cc2OC)C=C1 [Compound L15]
IC50 ([2]; 48 h, 231BR, 48 h, 10 times serial dilution, read-out: Approximate IC50, primary screening): 32 µM

CCC1=N/C(=C\c2[nH]c(-c3ncc[nH]3)cc2OC)C=C1 [Compound L10]
IC50 [2, 10]: 285 µM
